A short description of the data set: Human HepG2 cell viability assay in 384 well format. The class given is toxicity, cell-based. Also noted: dose 125 nL, time 70.5 hour; concentration not given beside the values. Particulars: HepG2 cells, read-out: Inhibition.

The record followed here is ChEMBL document CHEMBL3507680, “University of Dundee, Gates Library screen for HepG2 cell viability”.

SMILES strings stand for the structures.

Take `Cc1ncoc1C(=O)N1CCCC(C(=O)c2cccc(OC(C)C)c2)C1` (stereo not given): the cytotoxicity at 70.5 h is -8.43%.

In the case of `Cc1cccc(CN2CCN(C(=O)c3cc(Cl)c[nH]c3=O)CC2)c1`, the cytotoxicity at 70.5 h is -4.23%.

Take `Cc1ccc2nc(C)c(C)c(C(=O)N3CCN(c4nccs4)CC3)c2c1`: the cytotoxicity at 70.5 h was -7.96%.

As for `N[C@H]1CC[C@@H](Nc2nccc(CCC(F)(F)F)n2)CC1`, the cytotoxicity at 70.5 h is -2.71%.

Take `CCc1nnc(CN2CCC3(CCC(=O)N(C4CCCC4)C3)CC2)o1`: the cytotoxicity at 70.5 h is -7.05%.

On to `Cc1ccc2c(c1)c(CNC(=O)C1CCN(C(=O)C3CC3)CC1)nn2C`, for which the cytotoxicity at 70.5 h was -3.75%.

As to `CCn1cc(-c2c(C)c(C3CCOC(C)(C)C3)nc(N)c2C#N)cn1` (stereo not given), the cytotoxicity at 70.5 h worked out at 9.87%.

Take `CCc1cc(N2C[C@H](C3CC3)[C@@H](N)C2)nc(N2CCCC2)n1`: the cytotoxicity at 70.5 h was 18.8%.

With `O=C(NCCN1CCCCC1CO)c1cc(-c2ccccc2)on1` (stereo not given), the cytotoxicity at 70.5 h is -4.82%.

Consider `CC(C)c1nc(CN(C)C(=O)CCS(=O)(=O)c2ccccc2)no1`, for which the cytotoxicity at 70.5 h is -8.68%.

Turning to `COc1ccc(C(=O)N2C[C@@H](O)[C@H](NCCc3ncccc3C)C2)cc1`, the cytotoxicity at 70.5 h was -10.6%.

Regarding `N[C@H]1CN(S(=O)(=O)Cc2ccccc2)C[C@@H]1C1CC1`, the cytotoxicity at 70.5 h is -6.71%.

On to `CSCC[C@@H](CO)Nc1nc(-c2ccccn2)nc2c1c(C)nn2C`, for which the cytotoxicity at 70.5 h is -0.626%.

Consider `Cc1ccc(CN(C)C(=O)c2cc(Cn3ccnc3C(C)C)[nH]n2)o1`, for which the cytotoxicity at 70.5 h was 3.51%.

Turning to `COCCN(CC1CC1)c1nc(CCN)nc2ccccc12`, the cytotoxicity at 70.5 h was -4.8%.

As to `Cc1cnc(CNc2ncc(C)c(-c3cnn(C)c3)n2)cn1`, the cytotoxicity at 70.5 h is -14.1%.

Take `COc1cc(C)cc(C(C(=O)O)N(C)CCN2CCCC2)c1OC` (stereo not given): the cytotoxicity at 70.5 h is -2.88%.

Turning to `CNc1ccnc(N2CC[C@@](O)(C3CCOCC3)[C@H](C)C2)n1`, the cytotoxicity at 70.5 h was -7.76%.

With `Cc1cc(C(F)(F)F)nc(CNC(=O)C2CCCCCN2C)n1` (stereo not given), the cytotoxicity at 70.5 h came out at 2.11%.

As to `COc1cccc2c1OCCCN(Cc1ncccc1C(=O)O)C2`, the cytotoxicity at 70.5 h was -3.58%.

In the case of `O=C1N(CC2CCCCC2)CCCC1(O)CN1CCc2[nH]ncc2C1` (stereo not given), the cytotoxicity at 70.5 h was -7.48%.

With `c1ccc(CN(Cc2ncc[nH]2)Cc2nccs2)cc1`, the cytotoxicity at 70.5 h was -14.7%.

As to `Cc1cc(-c2ccc(C(C)N3CCCCC3)cc2)cnc1N` (stereo not given), the cytotoxicity at 70.5 h is -1.07%.

Take `CCc1ncc2c(n1)CN(C(=O)CC(C)NC(C)=O)C2` (stereo not given): the cytotoxicity at 70.5 h was -5.94%.

For the compound `CCn1c(CN(C)C)nnc1C1CCN(Cc2ccc(Cl)cc2F)CC1`, the cytotoxicity at 70.5 h was -0.622%.

Consider `COc1cccc(Cn2ncnc2CCSC)c1`, for which the cytotoxicity at 70.5 h was -12.2%.

With `CN(Cc1ccccc1)CC1(O)CCCN(CCC2CCCCC2)C1=O` (stereo not given), the cytotoxicity at 70.5 h turned out to be 29.6%.

As to `CN1CCCN(C[C@@H]2CN(C(=O)N3CCOCC3)C[C@@H]2CO)CC1`, the cytotoxicity at 70.5 h is -3.11%.

Turning to `COCC(=O)N1CC[C@]2(O)CCN(Cc3cccnc3OC)C[C@@H]2C1`, the cytotoxicity at 70.5 h is -7.29%.

Regarding `Cc1noc(-c2ccc(N(C)Cc3ccncn3)nc2)n1`, the cytotoxicity at 70.5 h is -5.88%.

With `CNS(=O)(=O)c1ccc(CN2CCCN(Cc3ccncc3)CC2)cc1`, the cytotoxicity at 70.5 h worked out at 16.9%.

For the compound `CN1CCN(C[C@@H]2CN(C3Cc4ccccc4C3)C[C@@H]2CO)CC1`, the cytotoxicity at 70.5 h was found to be 22.1%.

Turning to `Cc1ncsc1CN(Cc1ccccc1)Cc1ncc[nH]1`, the cytotoxicity at 70.5 h was 17.5%.

In the case of `CN(C)CCn1ccnc1C1CCN(C(=O)CCC(F)(F)F)CC1`, the cytotoxicity at 70.5 h was -7.92%.

Turning to `O=C(O)[C@H]1C[C@H](C(=O)NC2CC2)CN(Cc2ccc(-c3cc[nH]n3)s2)C1`, the cytotoxicity at 70.5 h was determined as 11.9%.

For the compound `CCCc1nc(N2CCCN(c3ncccn3)CC2)c2cnn(C)c2n1`, the cytotoxicity at 70.5 h was 4.78%.

In the case of `Cc1cc2c(=O)n(CCOCCO)cnc2s1`, the cytotoxicity at 70.5 h was -5.77%.

As for `CCN(Cc1nc(COC)no1)C(=O)CCNC(=O)c1ccccc1F`, the cytotoxicity at 70.5 h is 22.4%.

Consider `Cc1nc(-c2cccc(N3CCC(NC4CCSC4)CC3)c2)cs1` (stereo not given), for which the cytotoxicity at 70.5 h is -1.58%.

With `OC1(CNCCc2nc(Cc3ccccc3)no2)CNCCOC1` (stereo not given), the cytotoxicity at 70.5 h stood at 0.264%.

With `Cc1ccc(N2CCC(C(=O)O)(n3ccc(C(C)C)n3)CC2)nn1`, the cytotoxicity at 70.5 h was -1.26%.

As to `OCCN1CCN(Cc2cnc3c(-c4ccccc4)cnn3c2)CC1`, the cytotoxicity at 70.5 h stood at 6.6%.

Turning to `CC1(C)CN(C(=O)c2cnc(CN3CCCC3)s2)CC[C@]1(C)O`, the cytotoxicity at 70.5 h was -0.621%.

In the case of `CC(C)c1nc(CN(C)Cc2ccc(O)c(Cl)c2)cs1`, the cytotoxicity at 70.5 h was -13.5%.

For `CCc1ncc(C(=O)N(CCOC)Cc2nccs2)cn1`, the cytotoxicity at 70.5 h is 5.06%.

For the compound `CCn1c(N)nc2cc(C(=O)N3CCN(c4nccs4)CC3)cnc21`, the cytotoxicity at 70.5 h is -6.84%.

`CN(CCN1CCCC1)c1nccc(N2CCN[C@H]3CS(=O)(=O)C[C@H]32)n1`: the cytotoxicity at 70.5 h is 22.4%.

Turning to `COc1ccc(CN(C)C2CCN(S(C)(=O)=O)CC2)c2cccnc12`, the cytotoxicity at 70.5 h was -1.77%.

For the compound `Cc1cnn(CCC(=O)N2CCN(C(=O)C(C)C)[C@@H]3CS(=O)(=O)C[C@@H]32)c1`, the cytotoxicity at 70.5 h was -9.72%.

`Cn1cnc(S(=O)(=O)N2C[C@@H]3CC[C@H](C2)N(Cc2ccccn2)C3)c1`: the cytotoxicity at 70.5 h was -7.24%.

As for `CCC(CC)C(=O)N1CCC2(CC1)c1ccccc1[C@@H](OC)[C@@H]2O`, the cytotoxicity at 70.5 h is -8.24%.

In the case of `CCn1nc(C)cc1C(=O)NCc1nc(C)cc(C)n1`, the cytotoxicity at 70.5 h was -13.2%.

On to `CCC[C@H]1CN(CCS(C)(=O)=O)C[C@@H]1NC(=O)c1cccnn1`, for which the cytotoxicity at 70.5 h turned out to be 7.31%.

Take `CC(C)c1cc(C(=O)N2CCCN(CCCc3ccccc3)CC2)[nH]n1`: the cytotoxicity at 70.5 h is -8.74%.

On to `Cc1cc(C(=O)N2CCN[C@H](C)C2)c2ccc(F)cc2n1`, for which the cytotoxicity at 70.5 h was 15.7%.

Regarding `COc1ccc(CCNC(=O)N2CCN(C)[C@@H]3CS(=O)(=O)C[C@@H]32)cc1`, the cytotoxicity at 70.5 h was -3.24%.

Consider `CC(C)Oc1cc(N2CC[C@@H](N3CCOCC3)[C@H](O)C2)nc(N)n1`, for which the cytotoxicity at 70.5 h is -6.54%.

In the case of `Cn1ncc2c(N3CCCN4CCC[C@H]4C3)nc(C(C)(C)C)nc21`, the cytotoxicity at 70.5 h is -7.18%.

On to `CSc1cccc(CN(C)C(=O)Cn2ncc(N3CCCC3)cc2=O)c1`, for which the cytotoxicity at 70.5 h was -3.66%.

As for `CCNC(=O)[C@@H]1C[C@@H](N)CN1Cc1ccc(-c2ccccc2C#N)o1`, the cytotoxicity at 70.5 h was -6.11%.

Regarding `CCOc1ccc2[nH]c(=O)c(CN3CCN(S(N)(=O)=O)CC3)cc2c1`, the cytotoxicity at 70.5 h is -11.9%.

`CCn1nc(C(C)C)cc1C(=O)NCc1nc2ccc(OC)cc2[nH]1`: the cytotoxicity at 70.5 h was -14.7%.

Take `CCN(C)c1nccc(N2CCN[C@H]3CS(=O)(=O)C[C@H]32)n1`: the cytotoxicity at 70.5 h is 10.7%.

For `O=C(CCn1cc(Cl)cn1)N1CCN(CCOc2ccccc2)CC1`, the cytotoxicity at 70.5 h is -4.12%.

Regarding `CCc1csc(CNC(=O)C(CC)n2cccn2)n1` (stereo not given), the cytotoxicity at 70.5 h is -2.46%.

Regarding `CCn1c(N)nc2cc(C(=O)NCCCc3ccccn3)cnc21`, the cytotoxicity at 70.5 h is -15%.

In the case of `O=C(CCc1ccccn1)NC1CCCN(C2Cc3ccccc3C2)C1` (stereo not given), the cytotoxicity at 70.5 h is -8.7%.

With `CC(C(=O)O)N1CCc2onc(-c3ccc4c(c3)OCO4)c2C1` (stereo not given), the cytotoxicity at 70.5 h is -3.84%.

As for `C[C@H](c1ccc(F)cc1)n1c(C2CCN(C)CC2)n[nH]c1=O`, the cytotoxicity at 70.5 h worked out at 19.4%.

With `NCCc1cccc(CN2CCN(c3ccccc3)C(=O)C2)c1`, the cytotoxicity at 70.5 h is -9.38%.

Regarding `CCn1c(C2CCN(C(=O)c3cc(CC(C)C)on3)CC2)nn(C)c1=O`, the cytotoxicity at 70.5 h stood at 6.02%.

Consider `Cc1cc(C(=O)NCc2csc(N(C)C)n2)c2ccc(C)c(C)c2n1`, for which the cytotoxicity at 70.5 h turned out to be 0.264%.

Turning to `CCCc1nnc2sc(CC3CN(Cc4ccccc4)CCO3)nn12` (stereo not given), the cytotoxicity at 70.5 h was -8.68%.

In the case of `COc1ccccc1-c1ccc(C(=O)N2C[C@H]3CC[C@@H]2CN(C)C3)cc1`, the cytotoxicity at 70.5 h is -8.1%.

As for `CSCCN1CCC(NC(=O)c2cccc(C3CCCNC3)c2)CC1` (stereo not given), the cytotoxicity at 70.5 h was -24.6%.

With `COCCn1c(=O)n(Cc2ccccc2C)c2cc(C(=O)O)ccc21`, the cytotoxicity at 70.5 h is -7.93%.

With `Cc1ccsc1CN(C)CCc1scnc1C`, the cytotoxicity at 70.5 h stood at 14.4%.

On to `CN(C)C(C(=O)N1CCC(C#N)CC1)c1ccccc1F` (stereo not given), for which the cytotoxicity at 70.5 h was -5.19%.

With `O=c1cc(-c2cccnc2)nc(-c2ccc(CN3CC[C@H](O)C3)cc2)[nH]1`, the cytotoxicity at 70.5 h came to 9.56%.

For `c1cc2c(cc1OC[C@@H]1CCCN3CCCC[C@H]13)OCCO2`, the cytotoxicity at 70.5 h amounted to 3.85%.

In the case of `COc1ccc(-c2noc(Cn3cc(C)cn3)n2)c(OC)c1OC`, the cytotoxicity at 70.5 h was -1.78%.

As for `COc1c(F)cccc1C(=O)NC(C)c1cnn(C)c1` (stereo not given), the cytotoxicity at 70.5 h was -8.49%.

Consider `O=C(c1cnccn1)N1CCCC(Cn2cc(C3CCCC3)nn2)C1` (stereo not given), for which the cytotoxicity at 70.5 h is -10.8%.

Take `CCn1ccnc1CN1CCCN(CC2CC2)C(C(C)C)C1` (stereo not given): the cytotoxicity at 70.5 h was -5.83%.

As to `CN(Cc1nncn1C)C(=O)c1cc(COc2ccccc2F)[nH]n1`, the cytotoxicity at 70.5 h is -11.1%.

On to `CN1CCCCC1CCC(=O)NCCCn1ncc2ccccc21` (stereo not given), for which the cytotoxicity at 70.5 h was -3.92%.

With `CCC(CNc1ncnc2oc(C)nc12)Cc1ccccc1` (stereo not given), the cytotoxicity at 70.5 h was -1.88%.

Take `O=S(=O)(N[C@H]1CC[C@H]1NC1Cc2ccccc2C1)c1cccnc1`: the cytotoxicity at 70.5 h was -6.2%.

Regarding `CCn1c(C)cc(C(=O)N2C[C@@H](C(=O)O)[C@H](c3ccccc3)C2)c1C`, the cytotoxicity at 70.5 h is -2.74%.

For the compound `CC(=O)N1CCCn2nc(CNc3cc(C)ncn3)cc2C1`, the cytotoxicity at 70.5 h was 15%.

With `OC1(CNCCN2CCc3ccccc32)CNCCOC1` (stereo not given), the cytotoxicity at 70.5 h is -11%.

For `Cn1cccc1C(=O)N1CC[C@@]2(O)CCN(S(C)(=O)=O)C[C@H]2C1`, the cytotoxicity at 70.5 h is -6.36%.

With `CN(C)S(=O)(=O)N1C[C@@H]2CC[C@H](C1)N(C/C=C/c1ccc(F)cc1)C2`, the cytotoxicity at 70.5 h was 0.852%.

`COc1ccc(CN2CCC(CO)(Cc3ccc(Cl)cc3)CC2)c(O)c1`: the cytotoxicity at 70.5 h is -11.2%.

Regarding `O=C(c1cccc(-n2cccn2)c1)N1CCOC(CCO)C1` (stereo not given), the cytotoxicity at 70.5 h came to 1.32%.
